Tests used:
Format in all cases: biochemical
[1] = biological target: BTK (Homo sapiens, UniProt Q06187); test: Omnia assay for potency against BTK; settings: read-out: BTK Inhibition
From the text: (§1) The protocol below describes continuous-read kinase assays to measure inherent potency of compounds against active forms of EGFR (WT) and EGFR (T790M/L858R) enzymes. The mechanics of the assay platform are best described by the vendor (Invitrogen, Carlsbad, Calif.) on their website at the following URL: http://www.invitrogen.com/content.cfm?pageid=11338 or http://www.invitrogen.com/site/us/en/home/Products-and-Services/Applications/Drug-Discovery/Target-and-Lead-Identification-and-Validation/KinaseBiology/KB-Misc/Biochemical-Assays/Omnia-Kinase-Assays.html.
(§2) Briefly, 10× stocks of EGFR-WT (PV3872) from Invitrogen and EGFR-T790M/L858R (40350) from BPS Bioscience, San Diego, Calif., 1.13×ATP (AS001A) and appropriate Tyr-Sox conjugated peptide substrates (KCZI001) were prepared in 1× kinase reaction buffer consisting of 20 mM Tris, pH 7.5, 5 mM MgCl2, 1 mM EGTA, 5 mM β-glycerophosphate, 5% glycerol (10× stock, KB002A) and 0.2 mM DTT (DS001A). 5 μL of each enzyme were pre-incubated in a Corning (#3574) 384-well, white, non-binding surface microtiter plate (Corning, NY) for 30 min. at 27° C. with a 0.5 μL volume of 50% DMSO and serially diluted compounds prepared in 50% DMSO. Kinase reactions were started with the addition of 45 μL of the ATP/Tyr-Sox peptide substrate mix and monitored every 30-90 seconds for 60 minutes at λex360/λem485 in a Synergy^4 plate reader from BioTek (Winooski, Vt.). At the conclusion of each assay, progress curves from each well were examined for linear reaction kinetics and fit statistics (R^2, 95% confidence interval, absolute sum of squares). Initial velocity (0 minutes to ˜30 minutes) from each reaction was determined from the slope of a plot of relative fluorescence units vs time (minutes) and then plotted against inhibitor concentration to estimate IC50 from log [Inhibitor] vs Response, Variable Slope model in GraphPad Prism from GraphPad Software (San Diego, Calif.).
The Omnia Assay Protocol for potency assessment against BTK is performed in a substantially similar manner as that described in Example 25 above except that the modified BTK-optimized reagent conditions are: • [BTK]=5 nM, [ATP]=[…], [Y5-Sox]=[…] (ATP KMapp ˜[…]).

[2] = biological target: T1, JAK3 (Homo sapiens, UniProt P52333); test: Omnia assay for potency against JAK3; settings: read-out: JAK3 Inhibition
T1 sequence (P52333 1-1124): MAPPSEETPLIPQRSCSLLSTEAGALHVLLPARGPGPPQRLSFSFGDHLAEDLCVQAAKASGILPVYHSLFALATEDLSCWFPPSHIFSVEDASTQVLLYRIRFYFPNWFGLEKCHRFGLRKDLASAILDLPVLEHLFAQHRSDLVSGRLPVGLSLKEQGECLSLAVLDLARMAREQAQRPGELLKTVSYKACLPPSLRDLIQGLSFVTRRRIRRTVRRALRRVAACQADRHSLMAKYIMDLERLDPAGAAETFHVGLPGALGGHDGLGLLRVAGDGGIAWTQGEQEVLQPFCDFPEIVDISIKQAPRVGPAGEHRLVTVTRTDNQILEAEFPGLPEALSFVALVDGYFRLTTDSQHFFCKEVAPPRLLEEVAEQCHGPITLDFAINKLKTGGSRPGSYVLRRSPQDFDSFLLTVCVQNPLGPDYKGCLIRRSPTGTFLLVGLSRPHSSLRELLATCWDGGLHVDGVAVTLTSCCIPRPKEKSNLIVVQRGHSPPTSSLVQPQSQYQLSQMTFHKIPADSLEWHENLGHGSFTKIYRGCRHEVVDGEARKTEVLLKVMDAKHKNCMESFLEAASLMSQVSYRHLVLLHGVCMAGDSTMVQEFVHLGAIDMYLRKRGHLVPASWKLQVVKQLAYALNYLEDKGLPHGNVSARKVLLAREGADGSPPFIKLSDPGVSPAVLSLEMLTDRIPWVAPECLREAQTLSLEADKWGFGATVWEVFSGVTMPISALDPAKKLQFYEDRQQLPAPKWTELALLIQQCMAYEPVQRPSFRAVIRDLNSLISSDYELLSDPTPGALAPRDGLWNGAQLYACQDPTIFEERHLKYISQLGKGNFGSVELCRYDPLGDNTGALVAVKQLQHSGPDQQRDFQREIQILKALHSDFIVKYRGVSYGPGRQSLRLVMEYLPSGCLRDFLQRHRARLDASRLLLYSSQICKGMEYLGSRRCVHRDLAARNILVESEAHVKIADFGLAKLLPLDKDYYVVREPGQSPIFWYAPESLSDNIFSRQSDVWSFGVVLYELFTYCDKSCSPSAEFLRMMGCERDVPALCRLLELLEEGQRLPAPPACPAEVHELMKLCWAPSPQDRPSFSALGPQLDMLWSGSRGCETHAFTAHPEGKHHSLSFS
From the text: as §1, §2
The Omnia Assay Protocol for potency assessment against JAK3 is performed in a substantially similar manner as that described in Example 25 above except that the modified JAK3-optimized reagent conditions are: • [JAK3]=5 nM, [ATP]=5 μM, [Y12-Sox]=5 μM (ATP KMapp ˜[…]).

[3] = biological target: T2, EGFR (WT) (Homo sapiens, UniProt P00533); test: Omnia continuous-read kinase assay, EGFR (WT); settings: read-out: EGFR inhibtion
T2 construct: purchased Invitrogen PV3872
From the text: as §1, §2
(§3) The EGFR-WT- and EGFR T790M/L858R-modified optimized reagent conditions are: • [EGFR-WT]=5 nM, [ATP]=[…], [Y12-Sox]=[…]; and [EGFR-T790M/L858R]=3 nM, [ATP]=[…], [Y12-Sox]=[…].

[4] = biological target: T3, EGFR (T790M/L858R) (Homo sapiens, UniProt P00533, L858R/T790M); test: Omnia continuous-read kinase assay, EGFR (T790M/L858R); settings: read-out: EGFR (T790M/L858R) inhibiton
T3 construct: purchased BPS Bioscience 40350
From the text: as §1, §2, §3

BTK, sequence (Q06187 whole entry): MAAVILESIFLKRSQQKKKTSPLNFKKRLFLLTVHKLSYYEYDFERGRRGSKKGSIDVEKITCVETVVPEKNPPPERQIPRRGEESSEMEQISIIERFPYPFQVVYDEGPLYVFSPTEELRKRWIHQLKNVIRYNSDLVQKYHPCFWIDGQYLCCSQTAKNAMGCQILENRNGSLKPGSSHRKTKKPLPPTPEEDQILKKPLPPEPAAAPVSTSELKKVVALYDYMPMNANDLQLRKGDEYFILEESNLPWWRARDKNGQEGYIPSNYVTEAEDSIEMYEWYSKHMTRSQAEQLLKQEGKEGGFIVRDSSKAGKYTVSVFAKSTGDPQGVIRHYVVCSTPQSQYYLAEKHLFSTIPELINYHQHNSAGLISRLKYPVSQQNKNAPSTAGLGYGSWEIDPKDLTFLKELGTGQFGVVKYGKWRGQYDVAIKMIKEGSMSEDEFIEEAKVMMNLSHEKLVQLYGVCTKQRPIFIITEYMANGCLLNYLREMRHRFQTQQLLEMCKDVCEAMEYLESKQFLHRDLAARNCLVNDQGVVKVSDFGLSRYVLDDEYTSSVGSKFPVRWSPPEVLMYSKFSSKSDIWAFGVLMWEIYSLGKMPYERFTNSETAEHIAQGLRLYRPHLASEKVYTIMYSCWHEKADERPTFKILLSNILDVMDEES
T2 sequence (P00533 25-1210): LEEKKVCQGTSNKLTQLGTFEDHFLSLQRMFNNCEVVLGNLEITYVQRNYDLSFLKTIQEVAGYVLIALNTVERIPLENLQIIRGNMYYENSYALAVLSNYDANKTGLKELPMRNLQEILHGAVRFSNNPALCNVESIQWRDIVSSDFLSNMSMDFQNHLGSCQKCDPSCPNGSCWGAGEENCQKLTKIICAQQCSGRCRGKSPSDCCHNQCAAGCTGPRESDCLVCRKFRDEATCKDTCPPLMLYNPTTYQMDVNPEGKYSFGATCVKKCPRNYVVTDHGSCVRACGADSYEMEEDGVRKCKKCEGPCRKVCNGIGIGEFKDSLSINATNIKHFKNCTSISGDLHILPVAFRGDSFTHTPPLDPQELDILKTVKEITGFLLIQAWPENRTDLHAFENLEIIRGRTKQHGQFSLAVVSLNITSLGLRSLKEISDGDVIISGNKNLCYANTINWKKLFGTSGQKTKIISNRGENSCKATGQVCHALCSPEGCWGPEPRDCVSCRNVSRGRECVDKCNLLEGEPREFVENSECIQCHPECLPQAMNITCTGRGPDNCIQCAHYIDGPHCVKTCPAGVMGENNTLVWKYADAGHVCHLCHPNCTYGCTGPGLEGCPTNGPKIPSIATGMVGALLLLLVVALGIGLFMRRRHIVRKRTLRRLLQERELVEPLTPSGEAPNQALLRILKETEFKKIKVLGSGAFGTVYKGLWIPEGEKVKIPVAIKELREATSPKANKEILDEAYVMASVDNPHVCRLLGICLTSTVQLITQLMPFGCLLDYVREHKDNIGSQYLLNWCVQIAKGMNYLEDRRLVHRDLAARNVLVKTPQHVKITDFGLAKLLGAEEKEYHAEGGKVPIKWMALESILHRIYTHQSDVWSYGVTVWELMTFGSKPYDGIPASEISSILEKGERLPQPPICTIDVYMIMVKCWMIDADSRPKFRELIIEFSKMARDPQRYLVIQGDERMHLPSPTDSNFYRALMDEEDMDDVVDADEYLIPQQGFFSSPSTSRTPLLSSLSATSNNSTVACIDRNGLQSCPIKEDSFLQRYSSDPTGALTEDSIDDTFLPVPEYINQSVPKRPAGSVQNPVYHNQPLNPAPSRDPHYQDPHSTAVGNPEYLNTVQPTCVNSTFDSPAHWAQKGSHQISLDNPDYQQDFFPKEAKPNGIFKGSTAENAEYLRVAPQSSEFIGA
T3 sequence (P00533 25-1210 T790M/L858R): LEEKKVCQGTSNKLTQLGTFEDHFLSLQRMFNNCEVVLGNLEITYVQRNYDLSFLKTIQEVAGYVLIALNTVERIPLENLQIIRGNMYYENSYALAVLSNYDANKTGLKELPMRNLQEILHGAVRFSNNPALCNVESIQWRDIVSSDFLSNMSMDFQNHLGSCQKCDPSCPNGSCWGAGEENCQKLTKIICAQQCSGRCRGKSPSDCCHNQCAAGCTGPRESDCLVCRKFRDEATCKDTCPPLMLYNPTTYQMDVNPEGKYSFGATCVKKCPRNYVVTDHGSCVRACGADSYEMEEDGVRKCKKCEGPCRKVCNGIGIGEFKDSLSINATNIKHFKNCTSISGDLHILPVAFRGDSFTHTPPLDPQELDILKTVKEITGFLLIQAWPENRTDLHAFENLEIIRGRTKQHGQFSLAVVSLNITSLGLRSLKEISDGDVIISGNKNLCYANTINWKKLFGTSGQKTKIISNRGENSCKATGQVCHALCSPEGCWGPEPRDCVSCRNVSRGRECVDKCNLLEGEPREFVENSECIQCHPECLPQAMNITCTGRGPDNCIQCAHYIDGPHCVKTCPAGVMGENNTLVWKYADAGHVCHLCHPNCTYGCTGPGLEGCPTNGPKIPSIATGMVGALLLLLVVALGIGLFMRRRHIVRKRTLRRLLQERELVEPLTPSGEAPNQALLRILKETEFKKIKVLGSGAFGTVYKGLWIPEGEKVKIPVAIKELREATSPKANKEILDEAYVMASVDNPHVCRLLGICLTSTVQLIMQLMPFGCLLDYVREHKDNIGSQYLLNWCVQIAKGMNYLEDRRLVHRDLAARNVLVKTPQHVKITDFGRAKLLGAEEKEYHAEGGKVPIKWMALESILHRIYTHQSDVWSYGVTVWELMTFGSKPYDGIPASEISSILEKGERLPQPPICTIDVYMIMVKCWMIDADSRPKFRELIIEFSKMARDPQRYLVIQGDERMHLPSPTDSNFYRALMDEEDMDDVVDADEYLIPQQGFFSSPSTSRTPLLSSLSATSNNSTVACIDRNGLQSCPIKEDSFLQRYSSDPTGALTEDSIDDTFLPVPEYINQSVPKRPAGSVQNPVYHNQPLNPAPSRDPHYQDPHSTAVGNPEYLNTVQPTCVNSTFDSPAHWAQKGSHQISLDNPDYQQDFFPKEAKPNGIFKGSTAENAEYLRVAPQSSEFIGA

SMILES | IC50 [1] [µM] | IC50 [2] [µM] | IC50 [3] [µM] | IC50 [4] [µM]
CN(C)C/C=C/C(=O)Nc1cccc(Nc2cc(Nc3ccc(Oc4ccccc4)cc3)ncn2)c1 [I-62, (E)-N-3-[6-(4-phenoxyphenyl)amino-pyrimidin-4-yl]aminophenyl-4-(dimethylamino)but-2-enamide] | ≤ 0.01 | 0.1 to 1 | – | –
C=C(C)C(=O)c1cccc(Nc2cc(Nc3ccc(Oc4ccccc4)cc3)ncn2)c1 [I-83, 2-methyl-1-(3-(6-(4-phenoxyphenylamino)pyrimidin-4-ylamino)phenyl)prop-2-en-1-one] | ≤ 0.01 | – | ≤ 0.01 | –
C=C(C#N)C(O)c1cccc(Nc2cc(Nc3ccc(Oc4ccccc4)cc3)ncn2)c1 (stereo not shown) [I-84] | 1 to 10 | ≥ 10 | 0.01 to 0.1 | –
C=CC(=O)Nc1cccc(Nc2cc(Oc3ccc(OC)cc3)ncn2)n1 [I-91, N-(6-(6-(4-methoxyphenoxy)pyrimidin-4-ylamino)pyridine-2-yl)acrylamide] | ≤ 0.01 | – | ≤ 0.01 | –
C=CC(=O)Nc1cccc(Nc2cc(Sc3ccc(Oc4ccccc4)cc3)ncn2)c1 [I-103, N-(3-(6-(4-phenoxyphenylthio)pyrimidin-4-ylamino)phenyl)acrylamide] | 0.1 to 1 | – | ≤ 0.01 | –
C=CC(=O)Nc1cc(Nc2cc(Oc3ccc(Oc4ccccc4)cc3)ncn2)cc(C(=O)NCCOC)c1 [I-102, 3-acrylamido-N-(2-methoxyethyl)-5-(6-(4-phenoxyphenoxy)pyrimidin-4-ylamino)benzamide] | 0.01 to 0.1 | – | ≤ 0.01 | –
C=CC(=O)Nc1ccc(Nc2cc(Nc3ccc(Oc4ccccc4)cc3)ncn2)cc1 [I-80, N-4-[6-(4-phenoxyphenyl)amino-pyrimidin-4-yl]aminophenylpropenamide] | 1 to 10 | ≥ 10 | 0.1 to 1 | –
O=C(CCl)Nc1cccc(Nc2cc(Oc3ccc(NC(=O)Nc4ccc(Cl)c(C(F)(F)F)c4)cc3)ncn2)c1 [I-69, N-3-[6-(4-[4-[[4-chloro-3-(trifluoromethyl)phenyl]amino]-carbonyl]amino)phenoxypyrimidin-4-yl]aminophenylchloroacetamide] | 0.1 to 1 | 0.1 to 1 | 0.01 to 0.1 | –
CN(C)C/C=C/C(=O)Nc1cccc(Nc2cc(Nc3ccccc3)ncn2)n1 [I-73, (E)-4-(dimethylamino)-N-(6-(6-(phenylamino)pyrimidin-4-ylamino)pyridine-2-yl)but-2-enamide] | ≤ 0.01 | ≤ 0.01 | ≤ 0.01 | –
CC(C)=CC(=O)c1cccc(Nc2cc(Nc3ccc(Oc4ccccc4)cc3)ncn2)c1 [I-87, 3-methyl-1-(3-(6-(4-phenoxyphenylamino)pyrimidin-4-ylamino)phenyl)but-2-en-1-one] | ≥ 10 | – | 0.01 to 0.1 | –
C=CC(=O)Nc1cccc(Nc2cc(Nc3cccc(Oc4ccccc4)c3)ncn2)c1 [I-75, N-(3-(6-(3-phenoxyphenylamino)pyrimidin-4-ylamino)phenyl)acrylamide] | ≤ 0.01 | 0.1 to 1 | ≤ 0.01 | –
C=CC(=O)Nc1cccc(Nc2cc(Oc3ccc(Oc4ccccc4)cc3)ncn2)c1 [I-97, N-(3-(6-(4-phenoxyphenoxy)pyrimidin-4-ylamino)phenyl)acrylamide] | 0.1 to 1 | – | ≤ 0.01 | –

Next, values leading:

IC50 [1] [µM] | IC50 [2] [µM] | IC50 [3] [µM] | IC50 [4] [µM] | SMILES
≤ 0.01 | – | ≤ 0.01 | – | C=CC(=O)N1CC(C)(C)Oc2ccc(Nc3cc(Oc4cccc(Cl)c4)ncn3)cc21 [I-104, 1-(6-(6-(3-chlorophenoxy)pyrimidin-4-ylamino)-2,2-dimethyl-2H-benzo[b][1,4]oxazin-4(3H)-yl)prop-2-en-1-one]
– | – | ≤ 0.01 | 0.01 to 0.1 | CC(Cl)C(=O)Nc1cccc(Nc2cc(Nc3ccc(F)c(Cl)c3)ncn2)c1 (stereo not shown) [I-50)]
0.01 to 0.1 | – | ≤ 0.01 | – | C=CC(=O)Nc1cc(Nc2cc(Oc3cccc(Cl)c3)ncn2)ccc1N1CCOCC1 [I-105, N-(2-morpholino-5-(6-(3-chlorophenoxy)pyrimidin-4-ylamino)phenyl)acrylamide]
0.01 to 0.1 | 0.01 to 0.1 | – | ≤ 0.01 | [2H]C([2H])([2H])N(C/C=C/C(=O)Nc1cccc(Nc2cc(Nc3ccc(F)c(Cl)c3)ncn2)c1)C([2H])([2H])[2H] [I-61]
0.01 to 0.1 | 0.01 to 0.1 | – | – | CN(C)C/C=C/C(=O)Nc1cccc(Nc2cc(Oc3ccc(F)c(Cl)c3)ncn2)c1 [I-92, (E)-N-(3-(6-(3-chloro-4-fluorophenoxy)pyrimidin-4-ylamino)phenyl)-4-(dimethylamino)but-2-enamide]
1 to 10 | 1 to 10 | ≤ 0.01 | – | C=CC(=O)N1CCCC(Nc2cc(Nc3ccc(F)c(Cl)c3)ncn2)C1 (stereo not shown) [I-71, 1-(3-(6-(3-chloro-4-fluorophenyamino)pyrimidin-4-ylamino)piperidin-1-yl)prop-2-en-1-one]
0.01 to 0.1 | ≤ 0.01 | ≤ 0.01 | – | C#Cc1cccc(Nc2cc(Nc3cccc(NC(=O)C=C)c3)ncn2)c1 [I-68, N-3-[6-(3-ethynylphenylamino)-pyrimidin-4-yl]aminophenyl-2-propenamide]
0.1 to 1 | 0.1 to 1 | ≤ 0.01 | – | C=CC(=O)N1CCC(Nc2cc(Nc3ccc(F)c(Cl)c3)ncn2)C1 (stereo not shown) [I-70, 1-(3-(6-(3-chloro-4-fluorophenyamino)pyrimidin-4-ylamino)pyrrolidin-1-yl)prop-2-en-1-one]
0.01 to 0.1 | 1 to 10 | 0.01 to 0.1 | – | C=CC(=O)N1CCC(Nc2cc(Nc3ccc(Oc4ccccc4)cc3)ncn2)C1 (stereo not shown) [I-85, 1-(3-(6-(4-phenoxyphenylamino)pyrimidin-4-ylamino)pyrrolidin-1-yl)prop-2-en-1-one]
1 to 10 | 0.1 to 1 | – | – | CC(Cl)C(=O)Nc1cccc(Nc2cc(Nc3ccc(F)c(Cl)c3)ncn2)c1 (stereo not shown) [I-50, 2-chloro-N-[3-(6-{3-chloro-4-fluorophenyl}aminopyrimidin-4-yl)aminophenyl]propionamide]
0.01 to 0.1 | ≥ 10 | 0.01 to 0.1 | – | C=CC(=O)N1CCCC(Nc2cc(Nc3ccc(Oc4ccccc4)cc3)ncn2)C1 (stereo not shown) [I-86, 1-(3-(6-(4-phenoxyphenylamino)pyrimidin-4-ylamino)piperidin-1-yl)prop-2-en-1one]
– | – | ≤ 0.01 | – | CN(C)C/C=C/C(=O)Nc1cccc(Nc2cc(Oc3ccc(F)c(Cl)c3)ncn2)c1 [I-92)]
